Patent US20090117177A1, “Echogenic microbubbles and microemulsions for ultrasound-enhanced nanoparticle-mediated delivery of agents” (priority 2005, published 2009)
≈ marks a conversion by molar mass, not a printed value.

Columns and labels:
[1] = test system: HCT116 colon cancer tumors; assay: HCT116 tumor growth rates; format: in vivo, male nu/nu mice; conditions: intravenous injection, DOX 3 mg/kg
Description: Tumors: HCT116 colon cancer tumors were inoculated subcutaneously to the right flanks of male nu/nu mice. (See, FIGS. 24 and 25). In contrast to A2780 tumors, this tumor is characterized as being poorly vascularized (See, FIG. 24).
(§1) DOX-loaded micelles were injected either intravenously (i.v.) or intratumorally (i.t.) at a DOX dosage of 3 mg/kg (growth rate studies) or 6 mg/kg (biodistribution studies).
Tumor growth rates: Animals were randomly assigned to experimental and control groups, comprising five animals each. Intravenous treatment was initiated when tumor volume reached 50-100 mm^3. Intratumoral treatment was initiated when tumor volume reached 150-300 mm^3. A total of four injections were delivered twice a week for two weeks. For intratumoral injections, four injections of 25 μl drug solution each were made into four sites of a tumor.

[2] = test system: HCT116 colon cancer tumors; assay: HCT116 biodistribution, DOX uptake by cells of organs by flow cytometry; format: in vivo, male nu/nu mice
Description: as §1
Biodistribution studies: DOX uptake by the cells of various organs was measured by flow cytometry. Mice were intratumorally injected with either free (i.e., PBS-dissolved) DOX or micelle-encapsulated DOX. Ten hours after injection of the composition, mice were sacrificed and tumors and various organs were excised and digested in trypsin.

colon cancer HCT116 = assay: Sensitivity of HCT116 to DOX; format: cell-based, human
[3] = ten hours after intratumoral injection

**Q.** With `COc1cccc2c1C(=O)c1c(O)c3c(c(O)c1C2=O)C[C@@](O)(C(=O)CO)C[C@@H]3O[C@H]1C[C@H](N)[C@H](O)[C@H](C)O1` [DOX, doxorubicin] as the compound, how does the tumor response [1] read?
**A.** high resistance to chemotherapy

**Q.** What about the “DOX internalization by tumor cells” value ([2]; ten hours after i.v. injection) of the same compound?
**A.** did not deliver drug to tumor cells

**Q.** What about the “DOX in spleen cells” value [2, 3] of the same compound?
**A.** slightly higher

**Q.** What about the “DOX uptake by heart cells” value [2, 3] of the same compound?
**A.** significant uptake

**Q.** What about the IC50 (colon cancer HCT116) of the same compound?
**A.** 1.5 µg/mL (≈ 2.76 µM)
